The values that follow come from US10196389B2, “One class of pyrazolone compounds and use thereof” (SHANGHAI INSTITUTE OF MATERIA MEDICA, CHINESE ACADEMY OF …, priority 2014, dated 2019).

In general, EC50 refers to the concentration needed to bring the measured effect to its halfway point. A lower EC50 goes with higher potency in that assay.

In this experiment the target is T1, human AMPK (α2β1γ1) (Homo sapiens, UniProt P54619+P54646+Q9Y478).
T1 construct: made in house; host or cells: E. coli
T1 sequence (P54646 whole entry): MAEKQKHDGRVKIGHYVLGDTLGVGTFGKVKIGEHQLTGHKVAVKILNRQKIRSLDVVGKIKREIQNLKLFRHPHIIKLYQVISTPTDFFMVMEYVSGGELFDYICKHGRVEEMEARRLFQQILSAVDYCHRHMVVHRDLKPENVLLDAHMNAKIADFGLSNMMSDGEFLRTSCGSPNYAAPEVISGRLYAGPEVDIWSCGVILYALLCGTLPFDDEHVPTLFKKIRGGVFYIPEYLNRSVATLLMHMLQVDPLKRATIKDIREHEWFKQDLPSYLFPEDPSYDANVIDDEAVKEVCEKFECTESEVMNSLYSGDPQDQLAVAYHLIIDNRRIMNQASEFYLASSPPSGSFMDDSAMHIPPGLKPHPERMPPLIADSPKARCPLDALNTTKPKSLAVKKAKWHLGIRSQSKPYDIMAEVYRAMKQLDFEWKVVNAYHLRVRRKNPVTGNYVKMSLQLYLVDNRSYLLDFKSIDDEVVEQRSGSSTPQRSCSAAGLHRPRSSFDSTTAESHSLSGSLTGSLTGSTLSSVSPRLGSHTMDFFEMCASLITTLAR
T1 sequence (Q9Y478 whole entry): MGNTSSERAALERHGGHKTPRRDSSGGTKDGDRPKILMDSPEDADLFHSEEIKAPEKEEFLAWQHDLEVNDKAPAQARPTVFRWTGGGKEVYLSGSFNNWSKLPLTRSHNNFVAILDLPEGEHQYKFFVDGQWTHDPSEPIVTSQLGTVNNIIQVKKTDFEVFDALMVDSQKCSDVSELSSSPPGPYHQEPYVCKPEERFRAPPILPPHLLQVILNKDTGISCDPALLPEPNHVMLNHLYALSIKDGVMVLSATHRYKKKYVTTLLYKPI
T1 sequence (P54619 whole entry): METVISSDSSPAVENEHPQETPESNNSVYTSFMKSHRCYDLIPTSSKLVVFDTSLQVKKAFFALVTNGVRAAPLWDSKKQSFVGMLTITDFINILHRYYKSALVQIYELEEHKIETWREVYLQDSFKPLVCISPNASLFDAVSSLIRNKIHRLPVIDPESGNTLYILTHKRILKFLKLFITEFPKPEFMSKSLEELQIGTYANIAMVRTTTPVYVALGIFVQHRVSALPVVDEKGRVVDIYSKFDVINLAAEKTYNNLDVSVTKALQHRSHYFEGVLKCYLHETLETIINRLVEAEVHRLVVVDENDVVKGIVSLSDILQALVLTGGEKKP
The experiment is described as follows: AMPK (α2β1γ1) activation at molecular level, HTRF KinEASE-STK S1 kinase assay. Conditions: activation of human AMPK (α2β1γ1), 4 μM ATP, 45 min at 30° C. Format: biochemical. The protocol: 1. Purpose of the experiment: To screen small molecule compounds that can activate AMPK (α2β1γ1).
2. Principle of the experiment: The peptide as substrate contains sites which can be AMPK phosphorylated. One terminal of the peptide is linked with biotin in the reaction system (containing 2 mM MgCl2, 400 μM DTT, 160 nM substrate peptide, 4 μM ATP and 1.6 nM AMPK). In the biotinylated terminal, biotin can link with streptavidin-XL665 (acceptor) so as to complete the labeling. After 45 minute of phosphorylation reaction, the phosphorylated substrate (i.e., product) can bind to an antibody (labeled Donor) which recognizes the phosphorylating site, and the biotin on the other terminal can linked to streptavidin-XL665 (acceptor) so that the resulting FRET signal can be detected with PE Evision. The final AMPK activity is expressed as a ratio of the 665 nm wavelength reading to the 615 nm wavelength reading (665 nm/615 nm).
3. Detection reagent: The human AMPK (α2β1γ1) protein was obtained by expression using an E. coli expression system and purification. HTRF KinEASE-STK S1 kit (purchased from Cisbio's); ATP (purchased from Sigma).
1) 200 nM AMPK (α2β1γ1) protein was incubated with 200 nM CaMKKβ at 30° C. for 4 hours in water bath to completely phosphorylate AMPK.
2) The enzyme reaction system (2 mM MgCl2, […], 160 nM substrate peptide, 4 µM ATP, and 1.6 nM AMPK) was prepared by using a white shallow plate purchased from PE. The reaction was reacted at 30° C. for 45 minutes. Phosphorylated recognizing peptides of the antibody and the XL665 Detection buffer were added and the mixture was incubated at room temperature for 3 hours before the signals were detected.
For orientation: Time-resolved FRET reads energy transfer from a long-lived donor to a nearby acceptor.
In the case of `COc1cc(CNC(=O)c2ccc(CN3C=C4C(=O)N(c5ccc(F)c(C(F)(F)F)c5)N=C4CC3)cc2)cc(OC)c1OC` [ZM-11], the “Activation ratio (Fold)” value was 3.5 Fold and a half-maximal response (EC50) required 7.5 µM. Consider `CCNC(=O)c1ccc(CN2C=C3C(=O)N(c4ccc(F)c(C(F)(F)F)c4)N=C3CC2)cc1` [ZM-10], for which the “Activation ratio (Fold)” value is listed as 2.7 Fold and a half-maximal response (EC50) required 10 µM. On to `COc1cc(F)c(CNC(=O)c2ccc(CN3C=C4C(=O)N(c5ccc(F)c(C(F)(F)F)c5)N=C4CC3)cc2)cc1OC` [ZM-20], for which the “Activation ratio (Fold)” value stood at 2.8 Fold and it took 4.4 µM to reach a half-maximal effect (EC50). The like results for `C[C@@H](NC(=O)c1ccc(CN2C=C3C(=O)N(c4ccc(F)c(C(F)(F)F)c4)N=C3CC2)cc1)c1ccccc1` [ZM-14] were, in that order, 2.5 Fold and 9.7 µM.

For `O=C(NCc1ccc2c(c1)OCO2)c1ccc(CN2C=C3C(=O)N(c4ccc(F)c(C(F)(F)F)c4)N=C3CC2)cc1` [ZM-12], the “Activation ratio (Fold)” value amounted to 3.0 Fold and the midpoint of the response, the EC50, lay at 5 µM. Regarding `COc1cc(CNC(=O)c2ccc(CN3C=C4C(=O)N(c5ccc(F)c(C(F)(F)F)c5)N=C4CC3)cc2)ccc1OC(F)F` [ZM-27], the “Activation ratio (Fold)” value is 2.3 Fold and the response was half-maximal at 5 µM (EC50). In turn, `COC(=O)c1ccc(CN2CCC3=NN(c4ccc(F)c(C(F)(F)F)c4)C(=O)C3C2)cc1` (stereo not drawn) [ZM-3, Methyl 4-((2-(4-fluoro-3-(trifluoromethyl)phenyl)-3-oxo-3a,4,6,7-tetrahydro-2H-pyrazolo[4,3-c]pyridin-5(3H)-yl)methyl)benzoic acid] gave an EC50 of 9.8 µM. For `[2H]C([2H])([2H])Oc1ccc(CNC(=O)c2ccc(CN3C=C4C(=O)N(c5ccc(F)c(C(F)(F)F)c5)N=C4CC3)cc2)cc1OC` [ZM-34], the “Activation ratio (Fold)” value was found to be 2.1 Fold and the EC50 worked out at 6.3 µM.

Consider `O=C(NCc1cccc2c1OCO2)c1ccc(CN2C=C3C(=O)N(c4ccc(F)c(C(F)(F)F)c4)N=C3CC2)cc1` [ZM-13], for which the “Activation ratio (Fold)” value was found to be 2.5 Fold and the EC50 was determined as 3.3 µM. `COC(=O)c1cccc(CN2CCC3=NN(c4ccc(F)c(C(F)(F)F)c4)C(=O)C3C2)c1` (stereo not drawn) [ZM-4]: the “Activation ratio (Fold)” value was 3.2 Fold and a half-maximal response (EC50) required 8.4 µM. Take `Nc1ncnc2c1ncn2[C@@H]1O[C@H](COP(=O)(O)O)[C@@H](O)[C@H]1O` [AMP, reference compound]: the “Activation ratio (Fold)” value was determined as 2.6 Fold and the EC50 came to 0.3 µM. Turning to `COc1ccc(CNC(=O)c2ccc(CN3C=C4C(=O)N(c5cccc(C(F)(F)F)c5)N=C4CC3)cc2)cc1OC` [ZM-16], the “Activation ratio (Fold)” value was found to be 3.2 Fold and the EC50 is 5.6 µM. In the case of `CCOc1ccc(CNC(=O)c2ccc(CN3CCc4c(c(=O)n(-c5ccc(F)c(C(F)(F)F)c5)n4C)C3)cc2)cc1OC` [ZM-24], the “Activation ratio (Fold)” value worked out at 2.8 Fold and the EC50 was 2.5 µM. Turning to `COc1ccc(C(C)(C)NC(=O)c2ccc(CN3C=C4C(=O)N(c5ccc(F)c(C(F)(F)F)c5)N=C4CC3)cc2)cc1OC` [ZM-21], the “Activation ratio (Fold)” value turned out to be 2.2 Fold and the EC50 was found to be 4 µM.

Take `COc1ccc(CNC(=O)c2ccc(CN3C=C4C(=O)N(c5ccc(S(N)(=O)=O)cc5)N=C4CC3)cc2)cc1OC` [ZM-17]: the “Activation ratio (Fold)” value stood at 2.1 Fold and the EC50 came out at 9.5 µM. For the compound `O=C(NCc1ccc(OC(F)F)c(OC(F)F)c1)c1ccc(CN2C=C3C(=O)N(c4ccc(F)c(C(F)(F)F)c4)N=C3CC2)cc1` [ZM-31], the “Activation ratio (Fold)” value was 3.1 Fold and the midpoint of the response, the EC50, lay at 5.4 µM.

Take `O=C(NCC1CCCCC1)c1ccc(CN2C=C3C(=O)N(c4ccc(F)c(C(F)(F)F)c4)N=C3CC2)cc1` [ZM-15]: the “Activation ratio (Fold)” value is recorded as 2.2 Fold and the response was half-maximal at 5.8 µM (EC50). `COc1ccc(CN(C)C(=O)c2ccc(CN3C=C4C(=O)N(c5ccc(F)c(C(F)(F)F)c5)N=C4CC3)cc2)cc1OC` [ZM-6]: the “Activation ratio (Fold)” value is 3.0 Fold and the EC50 is 1.1 µM.

In the case of `CCOc1ccc(CNC(=O)c2ccc(CN3C=C4C(=O)N(c5ccc(F)c(C(F)(F)F)c5)N=C4CC3)cc2)cc1OC` [ZM-23], the “Activation ratio (Fold)” value was determined as 3.0 Fold and a half-maximal response (EC50) required 5.4 µM. Turning to `COc1ccc(CNC(=O)c2ccc(CN3C=C4C(=O)N(c5ccc(F)c(C(F)(F)F)c5)N=C4CC3)cc2)cc1OC(F)F` [ZM-32], the “Activation ratio (Fold)” value is on record as 2.4 Fold and the EC50 came to 4.1 µM. For `CCOc1cc(CNC(=O)c2ccc(CN3C=C4C(=O)N(c5ccc(F)c(C(F)(F)F)c5)N=C4CC3)cc2)ccc1OC` [ZM-22], the “Activation ratio (Fold)” value turned out to be 2.9 Fold and the EC50 was 6.7 µM. Turning to `COC(=O)c1ccc(CN2C=C3C(=O)N(c4ccc(F)c(C(F)(F)F)c4)N=C3CC2)cc1` [ZM-2, Methyl 4-((2-(4-fluoro-3-(trifluoromethyl)phenyl)-3-oxo-6,7-dihydro-2H-pyrazolo[4,3-c]pyridin-5(3H)-yl)methyl)benzoic acid], the EC50 was found to be 5.8 µM. Consider `COc1cccc(CNC(=O)c2ccc(CN3C=C4C(=O)N(c5ccc(F)c(C(F)(F)F)c5)N=C4CC3)cc2)c1` [ZM-9], for which the “Activation ratio (Fold)” value is reported as 2.8 Fold and the EC50 is 5.3 µM. As for `COc1cc(CNC(=O)c2ccc(CN3C=C4C(=O)N(c5ccc(F)c(C(F)(F)F)c5)N=C4CC3)cc2)ccc1OC(C)C` [ZM-29], the “Activation ratio (Fold)” value worked out at 2.9 Fold and the response was half-maximal at 9.7 µM (EC50).

Regarding `COc1ccc(CNC(=O)c2ccc(CN3C=C4C(=O)N(c5nc6ccccc6s5)N=C4CC3)cc2)cc1OC` [ZM-18], the “Activation ratio (Fold)” value was 2.8 Fold and the EC50 was determined as 6.3 µM.

With `COc1ccc(C2(NC(=O)c3ccc(CN4C=C5C(=O)N(c6ccc(F)c(C(F)(F)F)c6)N=C5CC4)cc3)CC2)cc1OC` [ZM-28], the “Activation ratio (Fold)” value came out at 2.6 Fold and the response was half-maximal at 3.2 µM (EC50).

On to `COc1ccc(CNC(=O)c2ccc(CN3CCC4=NN(c5ccc(F)c(C(F)(F)F)c5)C(=O)C4(C)C3)cc2)cc1OC` (stereo not drawn) [ZM-33], for which the “Activation ratio (Fold)” value is 2.7 Fold and the EC50 is 7.8 µM.

Consider `COc1cc(CNC(=O)c2ccc(CN3CCc4c(c(=O)n(-c5ccc(F)c(C(F)(F)F)c5)n4C)C3)cc2)ccc1OC(C)C` [ZM-25], for which the “Activation ratio (Fold)” value is given as 3.1 Fold and a half-maximal effect (EC50) was put at 2.5 µM. Regarding `COc1ccc(CNC(=O)c2ccc(CN3CCc4c(c(=O)n(-c5ccc(F)c(C(F)(F)F)c5)n4C)C3)cc2)cc1OC` [ZM-5], the “Activation ratio (Fold)” value stood at 3.6 Fold and the EC50 was 3.3 µM. In the case of `CCOc1cc(CNC(=O)c2ccc(CN3CCc4c(c(=O)n(-c5ccc(F)c(C(F)(F)F)c5)n4C)C3)cc2)ccc1OC` [ZM-26], the “Activation ratio (Fold)” value came to 2.3 Fold and the EC50 was found to be 3 µM.

Consider `COc1cc(CNC(=O)c2ccc(CN3C=C4C(=O)N(c5ccc(F)c(C(F)(F)F)c5)N=C4CC3)cc2)ccc1O` [ZM-30], for which the “Activation ratio (Fold)” value turned out to be 2.7 Fold and the EC50 came to 8.6 µM. In the case of `O=C(NCc1ccccc1)c1ccc(CN2C=C3C(=O)N(c4ccc(F)c(C(F)(F)F)c4)N=C3CC2)cc1` [ZM-8], the “Activation ratio (Fold)” value was determined as 3.0 Fold and the midpoint of the response, the EC50, lay at 8.6 µM.

For the compound `COc1ccc(CNC(=O)c2cccc(CN3C=C4C(=O)N(c5ccc(F)c(C(F)(F)F)c5)N=C4CC3)c2)cc1OC` [ZM-7], the “Activation ratio (Fold)” value amounted to 2.7 Fold and the EC50 came to 4.6 µM. For `COc1ccc(CNC(=O)c2ccc(CN3C=C4C(=O)N(c5ccc(F)c(C(F)(F)F)c5)N=C4CC3)c(C)c2)cc1OC` [ZM-19], the “Activation ratio (Fold)” value amounted to 2.6 Fold and the EC50 is 5.6 µM.
